# Reference: the Kinase Knowledgebase extract (Sharma et al. 2016)
# pIC50: −log10 of the molar value.
# Target: MAPK14 (UniProt Q16539)
# Test: Inhibition of MAPK14 Kinase Activity
# Chain of MAPK14 (Q16539 whole entry, looked up): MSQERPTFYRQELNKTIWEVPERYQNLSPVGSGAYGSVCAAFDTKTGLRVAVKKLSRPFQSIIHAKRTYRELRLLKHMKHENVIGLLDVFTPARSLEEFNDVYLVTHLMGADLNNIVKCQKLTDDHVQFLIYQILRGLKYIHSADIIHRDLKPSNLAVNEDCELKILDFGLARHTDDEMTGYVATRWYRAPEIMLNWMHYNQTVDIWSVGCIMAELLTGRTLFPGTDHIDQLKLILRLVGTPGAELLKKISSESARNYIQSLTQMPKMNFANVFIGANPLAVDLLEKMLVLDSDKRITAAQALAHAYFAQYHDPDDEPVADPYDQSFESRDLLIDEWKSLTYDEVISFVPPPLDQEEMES
row,pIC50,Structure (SMILES)
1,≥ 5.30,CCn1cnc(-c2ccccc2)c1-c1ccc2nc(N)n(S(=O)(=O)C(C)C)c2c1
2,≥ 5.30,CC(C)S(=O)(=O)n1c(N)nc2ccc(-c3nc(C=O)[nH]c3-c3ccccc3)cc21
3,≥ 5.30,CC(C)S(=O)(=O)n1c(N)nc2ccc(-c3c(-c4ccccc4F)ncn3[C@H]3CC[C@H](O)CC3)cc21

# Further lines, the compound ahead of its results:
row,Structure (SMILES),pIC50
1,CC(C)S(=O)(=O)n1c(N)nc2ccc(-c3cc(C(C)(C)C)nn3-c3ccccc3)cc21,≥ 5.30
2,CC(C)S(=O)(=O)n1c(N)nc2ccc(-c3c(-c4ccccc4F)nc(N=[N+]=[N-])n3C3CC3)cc21,≥ 5.30
3,CC(C)S(=O)(=O)n1c(N)nc2ccc(-c3c(-c4ccccc4)ncn3C3CCCC3)cc21,≥ 5.30
4,CC(C)S(=O)(=O)n1c(N)nc2ccc(-c3nc(-c4ccc(OC(F)(F)F)cc4)[nH]c3-c3ccccc3)cc21,≥ 5.30
